Like-named read-outs stand apart in the source and are kept apart here.
Tests used:
Bacillus subtilis 168 = assay: Bacterial growth in microscale cultivation, B. subtilis; assay type: cell-based; settings: for activity at 4 µM / activity at 40 µM / activity at 400 µM / Lag Phase / activity at 55 µM / activity at 110 µM / activity at 550 µM: relative to control; for Influence on bacterial growth: highest concentration tested (10× IC50) if not stated otherwise
How it was run: (§1)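 In a BioLector microscale system shaken at 1200 rpm, growth was tracked by backscatter at 620 nm, and final signal, growth rate (h⁻¹) and lag-phase length were scored against DMSO-only controls. Starting OD600 was 0.5, or 0.25 for B. subtilis. Inhibitors came from DMSO stocks, with trans-chalcone capped at 400 μM and 2'-hydroxychalcone at 100 μM.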

Amaranthus retroflexus = assay: In planta growth experiment, A. retroflexus; assay type: in vivo; settings: shoots sprayed, 3 mM
How it was run: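 Single top spray of 3 mM compound (2.4% DMSO, 0.1% Tween) onto two-leaf-stage plants in a climate chamber (22/20 °C, 16 h/8 h); controls got vehicle only.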

[1] = test system: Escherichia coli K-12 MG1655; assay: Bacterial growth in microscale cultivation, E. coli; assay type: cell-based; settings: for activity at 4 µM / activity at 40 µM / activity at 400 µM / activity at 55 µM / activity at 550 µM / activity at 5 µM / activity at 50 µM / activity at 500 µM: Escherichia coli; for activity at 4 µM / activity at 40 µM / activity at 400 µM / Lag Phase / activity at 55 µM / activity at 550 µM: relative to control
How it was run: as §1

Structure (SMILES): O=C(/C=C/c1ccccc1O)c1ccc(O)cc1O [Compound 7, 2′,4′,2-Trihydroxychalcone]
- activity at 4 µM (Bacillus subtilis 168; Bacillus subtilis, 168, complex medium, 4 µM, read-out: Final Backscatter): 99.9%
- activity at 4 µM (Bacillus subtilis 168; Bacillus subtilis, 168, complex medium, 4 µM, read-out: Growth rate): 95.9%
- activity at 40 µM (Bacillus subtilis 168; Bacillus subtilis, 168, complex medium, 40 µM, read-out: Final Backscatter): 102%
- activity at 40 µM (Bacillus subtilis 168; Bacillus subtilis, 168, complex medium, 40 µM, read-out: Growth rate): 104%
- activity at 400 µM (Bacillus subtilis 168; Bacillus subtilis, 168, complex medium, 400 µM, read-out: Final Backscatter): 98.3%
- activity at 400 µM (Bacillus subtilis 168; Bacillus subtilis, 168, complex medium, 400 µM, read-out: Growth rate): 92.5%
- activity at 4 µM (Bacillus subtilis 168; Bacillus subtilis, 168, minimal medium, 4 µM, read-out: Final Backscatter): 98.8%
- activity at 4 µM (Bacillus subtilis 168; Bacillus subtilis, 168, minimal medium, 4 µM, read-out: Growth rate): 107%
- activity at 40 µM (Bacillus subtilis 168; Bacillus subtilis, 168, minimal medium, 40 µM, read-out: Final Backscatter): 98.5%
- activity at 40 µM (Bacillus subtilis 168; Bacillus subtilis, 168, minimal medium, 40 µM, read-out: Growth rate): 107%
- activity at 400 µM (Bacillus subtilis 168; Bacillus subtilis, 168, minimal medium, 400 µM, read-out: Final Backscatter): 95.3%
- activity at 400 µM (Bacillus subtilis 168; Bacillus subtilis, 168, minimal medium, 400 µM, read-out: Growth rate): 70.4%
- Lag Phase (Bacillus subtilis 168; complex medium, 4 µM): 100,0%
- Lag Phase (Bacillus subtilis 168; complex medium, 40 µM): 107,1%
- Lag Phase (Bacillus subtilis 168; complex medium, 400 µM): 185,2%
- Lag Phase (Bacillus subtilis 168; minimal medium, 4 µM): 104,9%
- Lag Phase (Bacillus subtilis 168; minimal medium, 40 µM): 106,1%
- Lag Phase (Bacillus subtilis 168; minimal medium, 400 µM): 143,2%
- Influence on plants (Amaranthus retroflexus): No
- activity at 4 µM ([1]; MG1655, complex medium, 4 µM, read-out: Final Backscatter): 97.2%
- activity at 4 µM ([1]; MG1655, complex medium, 4 µM, read-out: Growth rate): 93.3%
- activity at 40 µM ([1]; MG1655, complex medium, 40 µM, read-out: Final Backscatter): 97.3%
- activity at 40 µM ([1]; MG1655, complex medium, 40 µM, read-out: Growth rate): 90.7%
- activity at 400 µM ([1]; MG1655, complex medium, 400 µM, read-out: Final Backscatter): 93%
- activity at 400 µM ([1]; MG1655, complex medium, 400 µM, read-out: Growth rate): 104%
- activity at 4 µM ([1]; MG1655, minimal medium, 4 µM, read-out: Final Backscatter): 98.2%
- activity at 4 µM ([1]; MG1655, minimal medium, 4 µM, read-out: Growth rate): 99.2%
- activity at 40 µM ([1]; MG1655, minimal medium, 40 µM, read-out: Final Backscatter): 97.2%
- activity at 40 µM ([1]; MG1655, minimal medium, 40 µM, read-out: Growth rate): 105%
- activity at 400 µM ([1]; MG1655, minimal medium, 400 µM, read-out: Final Backscatter): 97.4%
- activity at 400 µM ([1]; MG1655, minimal medium, 400 µM, read-out: Growth rate): 103%
- Lag Phase ([1]; complex medium, 4 µM): 107,4%
- Lag Phase ([1]; complex medium, 40 µM): 111,1%
- Lag Phase ([1]; complex medium, 400 µM): 118,5%
- Lag Phase ([1]; minimal medium, 4 µM): 88,9%
- Lag Phase ([1]; minimal medium, 40 µM): 99,0%
- Lag Phase ([1]; minimal medium, 400 µM): 99,3%

Structure (SMILES): O=C(/C=C/c1ccccc1)c1cc(O)ccc1O [Compound 5, 2′,5′-Dihydroxychalcone]
- growth (Bacillus subtilis 168; 550 μM, minimal media): abolished growth
- activity at 55 µM (Bacillus subtilis 168; Bacillus subtilis, 168, complex medium, 55 µM, read-out: Final Backscatter): 96.2%
- activity at 55 µM (Bacillus subtilis 168; Bacillus subtilis, 168, complex medium, 55 µM, read-out: Growth rate): 108%
- activity at 110 µM (Bacillus subtilis 168; Bacillus subtilis, 168, complex medium, 110 µM, read-out: Final Backscatter): 98%
- activity at 110 µM (Bacillus subtilis 168; Bacillus subtilis, 168, complex medium, 110 µM, read-out: Growth rate): 108%
- activity at 550 µM (Bacillus subtilis 168; Bacillus subtilis, 168, complex medium, 550 µM, read-out: Final Backscatter): 76.3%
- activity at 55 µM (Bacillus subtilis 168; Bacillus subtilis, 168, minimal medium, 55 µM, read-out: Final Backscatter): 96.4%
- activity at 55 µM (Bacillus subtilis 168; Bacillus subtilis, 168, minimal medium, 55 µM, read-out: Growth rate): 107%
- activity at 110 µM (Bacillus subtilis 168; Bacillus subtilis, 168, minimal medium, 110 µM, read-out: Final Backscatter): 102%
- activity at 110 µM (Bacillus subtilis 168; Bacillus subtilis, 168, minimal medium, 110 µM, read-out: Growth rate): 110%
- activity at 550 µM (Bacillus subtilis 168; Bacillus subtilis, 168, minimal medium, 550 µM, read-out: Final Backscatter): 30.5%
- Influence on bacterial growth (Bacillus subtilis 168; Complex medium): fbs↓ lag↑
- Influence on bacterial growth (Bacillus subtilis 168; Minimal medium): no growth (10× IC50)
- Lag Phase (Bacillus subtilis 168; complex medium, 55 µM): 102,3%
- Lag Phase (Bacillus subtilis 168; complex medium, 110 µM): 109,3%
- Lag Phase (Bacillus subtilis 168; complex medium, 550 µM): 177,1%
- Lag Phase (Bacillus subtilis 168; minimal medium, 55 µM): 103,5%
- Lag Phase (Bacillus subtilis 168; minimal medium, 110 µM): 108,5%
- Influence on plants (Amaranthus retroflexus): No
- activity at 55 µM ([1]; MG1655, complex medium, 55 µM, read-out: Final Backscatter): 101%
- activity at 55 µM ([1]; MG1655, complex medium, 55 µM, read-out: Growth rate): 103%
- activity at 550 µM ([1]; MG1655, complex medium, 550 µM, read-out: Final Backscatter): 103%
- activity at 55 µM ([1]; MG1655, minimal medium, 55 µM, read-out: Final Backscatter): 99.1%
- activity at 55 µM ([1]; MG1655, minimal medium, 55 µM, read-out: Growth rate): 122%
- activity at 550 µM ([1]; MG1655, minimal medium, 550 µM, read-out: Final Backscatter): 96.4%
- Lag Phase ([1]; complex medium, 55 µM): 103,1%
- Lag Phase ([1]; complex medium, 550 µM): 117,2%
- Lag Phase ([1]; minimal medium, 55 µM): 105,9%
- Lag Phase ([1]; minimal medium, 550 µM): 103,0%

Structure (SMILES): O=C(/C=C/c1ccccc1)c1ccccc1O [Compound 2, 2′-Hydroxychalcone]
- activity at 5 µM (Bacillus subtilis 168; Bacillus subtilis, 168, read-out: Final Backscatter, complex medium, 5 µM, relative to control): 96.4%
- activity at 50 µM (Bacillus subtilis 168; Bacillus subtilis, 168, read-out: Final Backscatter, complex medium, 50 µM, relative to control): 97.6%
- activity at 100 µM (Bacillus subtilis 168; Bacillus subtilis, 168, read-out: Final Backscatter, complex medium, 100 µM, relative to control): 112%
- activity at 500 µM (Bacillus subtilis 168; Bacillus subtilis, 168, read-out: Final Backscatter, complex medium, 500 µM, relative to control): 75.6%
- activity at 5 µM (Bacillus subtilis 168; Bacillus subtilis, 168, read-out: Final Backscatter, minimal medium, 5 µM, relative to control): 97.9%
- activity at 50 µM (Bacillus subtilis 168; Bacillus subtilis, 168, read-out: Final Backscatter, minimal medium, 50 µM, relative to control): 95.5%
- activity at 100 µM (Bacillus subtilis 168; Bacillus subtilis, 168, read-out: Final Backscatter, minimal medium, 100 µM, relative to control): 101%
- activity at 500 µM (Bacillus subtilis 168; Bacillus subtilis, 168, read-out: Final Backscatter, minimal medium, 500 µM, relative to control): 70%
- activity at 5 µM (Bacillus subtilis 168; Bacillus subtilis, 168, read-out: Growth rate, complex medium, 5 µM, relative to control): 91.2%
- activity at 50 µM (Bacillus subtilis 168; Bacillus subtilis, 168, read-out: Growth rate, complex medium, 50 µM, relative to control): 97.7%
- activity at 100 µM (Bacillus subtilis 168; Bacillus subtilis, 168, read-out: Growth rate, complex medium, 100 µM, relative to control): 118%
- activity at 5 µM (Bacillus subtilis 168; Bacillus subtilis, 168, read-out: Growth rate, minimal medium, 5 µM, relative to control): 96.8%
- activity at 50 µM (Bacillus subtilis 168; Bacillus subtilis, 168, read-out: Growth rate, minimal medium, 50 µM, relative to control): 113%
- activity at 100 µM (Bacillus subtilis 168; Bacillus subtilis, 168, read-out: Growth rate, minimal medium, 100 µM, relative to control): 134%
- activity at 500 µM (Bacillus subtilis 168; Bacillus subtilis, 168, read-out: Growth rate, minimal medium, 500 µM, relative to control): 98.7%
- Lag Phase (Bacillus subtilis 168; complex medium, 5 µM): 89,8%
- Lag Phase (Bacillus subtilis 168; complex medium, 50 µM): 100,0%
- Lag Phase (Bacillus subtilis 168; complex medium, 100 µM): 95,4%
- Lag Phase (Bacillus subtilis 168; minimal medium, 5 µM): 99,5%
- Lag Phase (Bacillus subtilis 168; minimal medium, 50 µM): 108,5%
- Lag Phase (Bacillus subtilis 168; minimal medium, 100 µM): 107,8%
- Lag Phase (Bacillus subtilis 168; minimal medium, 500 µM): 143,1%
- Influence on plants (Amaranthus retroflexus): No
- activity at 5 µM ([1]; MG1655, read-out: Final Backscatter, complex medium, 5 µM, relative to control): 100%
- activity at 50 µM ([1]; MG1655, read-out: Final Backscatter, complex medium, 50 µM, relative to control): 103%
- activity at 500 µM ([1]; MG1655, read-out: Final Backscatter, complex medium, 500 µM, relative to control): 98.1%
- activity at 5 µM ([1]; MG1655, read-out: Final Backscatter, minimal medium, 5 µM, relative to control): 100%
- activity at 50 µM ([1]; MG1655, read-out: Final Backscatter, minimal medium, 50 µM, relative to control): 97%
- activity at 500 µM ([1]; MG1655, read-out: Final Backscatter, minimal medium, 500 µM, relative to control): 101%
- activity at 5 µM ([1]; MG1655, read-out: Growth rate, complex medium, 5 µM, relative to control): 97.7%
- activity at 50 µM ([1]; MG1655, read-out: Growth rate, complex medium, 50 µM, relative to control): 86.6%
- activity at 5 µM ([1]; MG1655, read-out: Growth rate, minimal medium, 5 µM, relative to control): 102%
- activity at 50 µM ([1]; MG1655, read-out: Growth rate, minimal medium, 50 µM, relative to control): 105%
- Lag Phase ([1]; complex medium, 5 µM): 95,5%
- Lag Phase ([1]; complex medium, 50 µM): 100,0%
- Lag Phase ([1]; minimal medium, 5 µM): 89,4%
- Lag Phase ([1]; minimal medium, 50 µM): 91,6%

— PMC4893628, “Chalcone-based Selective Inhibitors of a C4 Plant Key Enzyme as Novel Potential Herbicides” (Scientific Reports, 2016)
